Like-named read-outs stand apart in the source and are kept apart here. One block for each compound: values may come before it.
Assays:
FaDu cells [1] = assay: Cellular retention of TLS00192 and BPA-fructose in FaDu cells; format: cell-based, human; conditions: sixteen (16) hours after initial 2 hour incubation
From the text: (§1) The FaDu cell line is a human nasopharyngeal carcinoma cell line. The cell line was obtained from the American Type Culture Collection (“ATCC”), located at 10801 University Boulevard Manassas, VA 20110-2209 USA in 2019. It has ATCC designation of HTB-43™ and lot number 70014320. FaDu cells are propagated in DMEM culture medium supplemented with 10% fetal bovine serum with routine passage by trypsinization and reseeding. The cell line is cryopreserved in liquid nitrogen.
(§2) Additionally, boron measurement was performed by ICP OES. on an Agilent 5110 ICP-OES. The data was analyzed using Agilent's ICP Expert Software, version 7.4.2.10790. Boron was measured axially at the 249.772 nm wavelength and the internal standard Beryllium was measured axially at the 313.042 nm wavelength. Beryllium internal standard was spiked into the solution at 1:5 the flowrate before introduction to the spray chamber via a T-connector. Finally, A standard curve using 1000, 100, 10, 1 and 0 ppb of boron was used to calculate the concentration of boron in each sample.
Subsequently, to determine whether the efflux mediated by either LAT1 or LAT2 or other transporters is equal for BPA-fructose relative to TLS00192 in cellular retention tests in FaDu cells. […] Data is expressed as % residual boron content of time zero amount.

LAT-1 = biological target: T1, LAT-1 (Homo sapiens, UniProt Q01650); assay: LAT-1 mediated competition studies, boron uptake in FaDu cells; format: cell-based; conditions: HBSS, 2 hours, 37° C.
T1 construct: host or cells: FaDu human nasopharyngeal carcinoma cells
T1 sequence (Q01650 whole entry): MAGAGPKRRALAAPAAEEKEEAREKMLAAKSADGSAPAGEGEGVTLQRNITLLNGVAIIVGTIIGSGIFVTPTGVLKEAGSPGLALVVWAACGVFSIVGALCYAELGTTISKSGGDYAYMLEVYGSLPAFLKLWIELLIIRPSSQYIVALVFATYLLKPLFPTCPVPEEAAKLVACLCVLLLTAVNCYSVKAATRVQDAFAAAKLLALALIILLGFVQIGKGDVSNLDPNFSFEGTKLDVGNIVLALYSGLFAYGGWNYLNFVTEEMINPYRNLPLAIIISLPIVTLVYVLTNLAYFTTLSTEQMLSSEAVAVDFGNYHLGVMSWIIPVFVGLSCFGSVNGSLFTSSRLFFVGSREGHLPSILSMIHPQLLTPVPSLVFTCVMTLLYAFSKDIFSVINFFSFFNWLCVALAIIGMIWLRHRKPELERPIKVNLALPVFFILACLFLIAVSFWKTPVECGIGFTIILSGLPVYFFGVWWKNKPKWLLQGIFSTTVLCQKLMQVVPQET
T1 sequence (P08195 102-630 partner): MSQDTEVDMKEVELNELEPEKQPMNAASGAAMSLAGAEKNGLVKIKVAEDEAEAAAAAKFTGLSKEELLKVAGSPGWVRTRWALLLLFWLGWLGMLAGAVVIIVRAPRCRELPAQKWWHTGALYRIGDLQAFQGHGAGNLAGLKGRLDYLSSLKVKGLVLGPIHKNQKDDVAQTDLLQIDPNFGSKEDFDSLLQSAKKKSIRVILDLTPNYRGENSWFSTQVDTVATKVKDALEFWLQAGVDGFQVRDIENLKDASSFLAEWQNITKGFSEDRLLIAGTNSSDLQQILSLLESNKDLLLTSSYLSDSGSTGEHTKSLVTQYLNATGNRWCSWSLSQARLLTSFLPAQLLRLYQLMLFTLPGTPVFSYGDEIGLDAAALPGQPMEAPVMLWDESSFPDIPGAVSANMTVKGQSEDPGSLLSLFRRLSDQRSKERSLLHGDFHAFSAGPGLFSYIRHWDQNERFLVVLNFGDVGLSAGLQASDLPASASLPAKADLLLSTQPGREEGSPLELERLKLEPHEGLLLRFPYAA
From the text: as §1, §2
It has been shown that the system L transporter (LAT-1) mediates the transport of L-amino acids into cells and plays a major role in the uptake of BPA in BPA-based BNCT (WONGTHAI, et. al. Cancer Sci Vol. 106, pg. 279-286, 2015). To assess whether TLS00192 is transported via LAT-1 dependent mechanism we interrogated its ability to be outcompeted by the LAT1 substrate L-Phe FaDu cells were incubated in HBSS medium for two (2) hours at 37° C. with 0.5 mM of either TLS00192 or BPA-fructose in the absence (Subset A) or presence of increasing concentrations of competitor Phe (Subset B), L-system antagonist BCH (Subset C) or LAT-1 specific inhibitor JPH203 (Subset D). The cells were harvested, and the amount of each boronated cell associated compound was determined by ICP OES. The IC50s for the respective inhibitor on each compound is also indicated. BPA was used as a positive control for LAT-1-mediated uptake.

[2] = tested on: FaDu nasopharnygeal squamous carcinoma cells; assay: Kinetic parameters of boron uptake in FaDu cells (ICP-OES); format: cell-based, human; conditions: Michaelis-Menton non-linear regression
From the text: To investigate the ability of TLS00192 to deliver boron to FaDu nasopharnygeal squamous carcinoma cells, we interrogated a range of concentrations bracketing what is hypothsized to be physiologically relevant amounts for boronophenylalanine (BPA), currently the most widely studied boron drug in BNCT clinical practice.
The FaDu cell line is a human nasopharyngeal carcinoma cell line. The cell line was obtained from the American Type Culture Collection (“ATCC”), located at 10801 University Boulevard Manassas, VA 20110-2209 USA in 2019. It has ATCC designation of HTB-43™ and lot number 70014320. […]
Additionally, boron measurement was performed by ICP OES. on an Agilent 5110 ICP-OES. The data was analyzed using Agilent's ICP Expert Software, version 7.4.2.10790. Boron was measured axially at the 249.772 nm wavelength and the internal standard Beryllium was measured axially at the 313.042 nm wavelength. […]
To determine the kinetic parameters of TLS00192, Boron compounds were added to FaDu cells at the final concentration of 2.5 mM in HBSS and the cells were incubated at 37° C., in a humidified 5% CO2 atmosphere for two (2) hrs with shaking. Following two (2) hour incubation, cells were harvested and suspended in ice cold PBS and lysed in RIPA buffer and protein content determined by BCA assay. […] Results were expressed as ng boron/per mg cell protein/per minute. […]

FaDu cells [3] = assay: Boron uptake of TLS00190 and TLS00178 in FaDu cells; format: cell-based, human; conditions: two (2) hour incubation
From the text: as §1
as §2, with “Finally, A standard curve using 1000, 100, 10, 1 and 0 ppb of boron was used to calculate the concentration of boron in each sample.” left out
The efficiency of boron uptake of TLS00190 and TLS00178 was determined using FaDu cells. Following a two (2) hour incubation, cells were harvested and suspended in ice cold PBS and a portion was lysed in RIPA buffer and protein content determined by BCA assay. […] After two (2) hours of incubation the amount of the compounds taken up was determined based on the boron measurements.

FaDu cells [4] = assay: Cellular retention of TLS00190, TLS00178 and BPA-Fructose in FaDu cells; format: cell-based, human
Method: Subsequently, to determine whether the efflux mediated by either LAT1 or LAT2 or other transporters is equal for BPA-fructose relative to TLS00192 in cellular retention tests in FaDu cells. The “time zero” sample was immediately harvested following an initial two (2) hour incubation with the compounds. Cells were then harvested at indicated times and subjected to lysis, boron measurement, and protein content. Data is expressed as % residual boron content of time zero amount. In addition, the retention of TLS00190 and TLS00178 following initial 2 hour uptake compared to BPA-Fructose was also studied in FaDu cells.

intracranial tumor = conditions: BNCT with beam directed to surgically exposed intracranial tumor; cited from earlier work
[5] = 0.5 mM BPA-fructose as substrate, read-out: IC50 of competitor on boron uptake of BPA-Fructose
[6] = 0.5 mM TLS00192 as substrate, read-out: IC50 of competitor on boron uptake of TLS00192
[7] = twenty (20) hrs after initial 2 hour uptake

Compound: N[C@@H](Cc1ccc(B(O)O)cc1)C(=O)O [BPA, 4-Borono-L-phenylalanine]
- % residual boron content of time zero amount (FaDu cells [1]): approximately 10%

- IC50 (LAT-1; [5]): 40 µM
- IC50 (LAT-1; [6]): 430 µM
Compound: N[C@@H](Cc1ccccc1)C(=O)O [L-Phe, phenylalanine]

Compound: N[C@@H](Cc1ccc(O)c(B(O)O)c1)C(=O)O [TLS00192]
- Km ([2]; 2 hr incubation in HBSS at 37° C.): 1970 µM
- apparent Vmax ([2]; 2 hr incubation): 15.87 ng boron mg^−1 min^−1
- % residual boron content of time zero amount (FaDu cells [1]): greater than 40%

Compound: CNC(=O)[C@@H](N)Cc1c[nH]cn1 [TLS00178]
- boron uptake (ng boron per mg protein), result in words (FaDu cells [3]): retain the ability to be transported into FaDu cancer cells
- retention, cellular level remaining (FaDu cells [4]; [7]): 57%

Compound: undecahydrododecaborane thiol [BSH]
- 5-year survival rate (intracranial tumor): 58%

- IC50 (LAT-1; [5]): 140 µM
- IC50 (LAT-1; [6]): 800 µM
Compound: NC1(C(=O)O)CC2CCC1C2 (stereo not shown) [BCH, 2-aminobicyclo-(2,2,1)-heptane-2-carboxylic acid]

- IC50 (LAT-1; 0.5 mM BPA-fructose as substrate, read-out: IC50 of inhibitor on LAT1-mediated uptake of BPA): 0.78 µM
- IC50 (LAT-1; 0.5 mM TLS00192 as substrate, read-out: IC50 of inhibitor on LAT1-mediated uptake of TLS00192): 0.19 µM
Compound: Nc1cc(COc2c(Cl)cc(C[C@H](N)C(=O)O)cc2Cl)c2oc(-c3ccccc3)nc2c1 [JPH203]

Compound: COCCOCCOc1ccc(C[C@H](N)C(=O)O)cc1 [TLS00190]
- boron uptake (ng boron per mg protein), result in words (FaDu cells [3]): retain the ability to be transported into FaDu cancer cells
- retention, cellular level remaining (FaDu cells [4]; [7]): 43%
- retention, cellular level remaining (FaDu cells [4]; two (2) hours after initial 2 hour uptake): 14%
